Results from patent US7745450B2, “Pyrazolo[4,3-d]pyrimidines, processes for their preparation and methods for therapy” (Institute of Experimental Botany, priority 2002, dated 2010).
Where two headings read alike, the source gives them in different places.

Assays:
MMK1 protein kinase = MMK1 protein kinase (Vicia faba, UniProt A0AAV1B7B8); experiment: MMK1 protein kinase activity; assay type: biochemical
Method: Protein extraction and purification of pant CDK by binding to p13^suc1-beads or immunopurification with an antibody specific to the cdc2a-MS protein was carried out as described previously (Bögre et al. 1997, Plant Physiol. 113, 1997, 841-852). The MMK1 protein kinase was purified with a specific antibody from Vicia faba extracts as described by Bögre et al. 1997a, Plant Cell 9, 75-83). Protein kinase activity was measures as described above in Example 20. The quantification of radioactivity incorporated into histone H1 or myelin basic protein was undertaken using phosphoimager (FIG. 2).

[1] = system: CEM (human lymphoblastoid leukemia); experiment: In vitro cytotoxic activity, Calcein AM; assay type: cell-based; details: Homo sapiens, 72 h, three days
Method: We have been using the following cell lines: HELA (human cervical carcinoma), MCF7 (human breast adenocarcinoma), NIH 3T3 (mouse fibroblasts), HOS (human osteogenic sarcoma), HL 60 (human promyelocytic leukemia), G 361 (human malignant melanoma), K562 (human erythroleukemia), CEM (human lymphoblastoid leukemia). Tested drugs were added to the cell cultures in six different concentration and kept at 37° C. and 5% CO2 for three days. All cell lines were grown in DMEM medium (Gibco BRL) supplemented with 10% (v/v) fetal bovine serum and L-glutamine and maintained at 37° C. in a humidified atmosphere with 5% CO2. 10^4 cells were seeded into each well of 96 well plate, allowed to stabilize for at least 2 h and then tested compounds were added at various concentrations ranging from 200 to 0.2 μM in triplicates. Three days after drug addition Calcein AM solution (Molecular Probes) was added and let to enter the cells for 1 hour. Fluorescence of viable cells was quantified employing Fluoroskan Ascent (Microsystems).

B16 = experiment: In vitro cytotoxic activity, Calcein AM; assay type: cell-based; details: Mus musculus, B16, 72 h, three days
cdk1/cyclin B (CDC2) = cdk1/cyclin B (CDC2) (Homo sapiens, UniProt P06493); experiment: CDK inhibition assay, cdk1/cyclin B (CDC2) kinase, histone phosphorylation; assay type: biochemical
Method in brief: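 Radiometric endpoint kinase assay under linear conditions: histone (1 mg/ml) phosphorylated with 15 μM ATP and [γ-32P]ATP in 50 mM HEPES pH 7.4, 10 mM MgCl2, 1 mM DTT. IC50 obtained graphically from dose-response curves of % maximal activity, read by imaging analyzer.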

IκB-α kinase = IκB-α kinase inhibition, in vitro kinase assay; assay type: biochemical
[2] = system: Cytokinin-dependent tobacco callus Nicotiana tabacum L. cv. Wisconsins 38; experiment: Tobacco callus bioassay for cytotoxicity (herbicidal activity); assay type: cell-based; details: Nicotiana tabacum, 672 h
Method: The novel compounds have also been tested in tobacco callus bioassay for cytotoxicity (herbicidal activity) and induction of cell death. The compounds to be tested were dissolved in dimethylsulfoxide (DMSO) and the solution brought up to 10^−3 M with distilled water. […] Cytokinin-dependent tobacco callus Nicotiana tabacum L. cv. Wisconsins 38 Murashige-Skoog medium, containing per 1 liter: 4 μmol nicotinic acid, 2.4 μmol pyridoxine hydrochloride, 1.2 μmol thiamine, 26.6 μmol glycine, 1.37 μmol glutamine, 1.8 μmol myo.inositol, 30 g of sucrose, 8 g of agar, […] α-naphthylacetic acid and 0.5 μmol 6-benzylaminopurine. Sub cultivation was carried out every three weeks. Fourteen days before the bioassay, the callus tissue was transferred to the media without 6-benzylaminopurine. Compounds were tested with two different concentrations of 6-benzylaminopurine (10^−5 M and 10^−6 M). Inhibitory growth activity was determined from the increase in fresh callus weight after four weeks of cultivation. Five replicates were prepared for each concentration tested and the entire test was repeated at least twice.

Chain of MMK1 protein kinase (A0AAV1B7B8 1-394): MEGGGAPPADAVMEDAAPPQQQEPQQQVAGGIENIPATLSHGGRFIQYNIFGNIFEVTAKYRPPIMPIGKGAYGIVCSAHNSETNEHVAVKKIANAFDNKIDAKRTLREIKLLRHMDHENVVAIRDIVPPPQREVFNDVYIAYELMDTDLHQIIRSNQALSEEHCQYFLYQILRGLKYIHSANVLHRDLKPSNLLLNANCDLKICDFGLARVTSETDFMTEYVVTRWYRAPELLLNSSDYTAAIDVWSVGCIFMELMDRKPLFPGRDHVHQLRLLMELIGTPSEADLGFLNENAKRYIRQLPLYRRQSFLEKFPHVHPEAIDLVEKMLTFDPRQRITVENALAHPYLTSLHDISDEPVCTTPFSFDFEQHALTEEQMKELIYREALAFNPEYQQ
Chain of cdk1/cyclin B (CDC2) (P06493 whole entry, species assumed): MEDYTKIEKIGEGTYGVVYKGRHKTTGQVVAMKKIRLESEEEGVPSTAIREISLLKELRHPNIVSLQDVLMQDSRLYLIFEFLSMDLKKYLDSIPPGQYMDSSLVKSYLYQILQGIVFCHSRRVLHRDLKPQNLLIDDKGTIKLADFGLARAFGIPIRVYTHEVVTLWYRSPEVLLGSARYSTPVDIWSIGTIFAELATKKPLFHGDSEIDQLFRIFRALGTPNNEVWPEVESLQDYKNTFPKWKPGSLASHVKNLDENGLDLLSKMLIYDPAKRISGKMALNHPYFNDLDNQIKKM
Chain of cdk1/cyclin B (CDC2) (P14635 whole entry partner, species assumed): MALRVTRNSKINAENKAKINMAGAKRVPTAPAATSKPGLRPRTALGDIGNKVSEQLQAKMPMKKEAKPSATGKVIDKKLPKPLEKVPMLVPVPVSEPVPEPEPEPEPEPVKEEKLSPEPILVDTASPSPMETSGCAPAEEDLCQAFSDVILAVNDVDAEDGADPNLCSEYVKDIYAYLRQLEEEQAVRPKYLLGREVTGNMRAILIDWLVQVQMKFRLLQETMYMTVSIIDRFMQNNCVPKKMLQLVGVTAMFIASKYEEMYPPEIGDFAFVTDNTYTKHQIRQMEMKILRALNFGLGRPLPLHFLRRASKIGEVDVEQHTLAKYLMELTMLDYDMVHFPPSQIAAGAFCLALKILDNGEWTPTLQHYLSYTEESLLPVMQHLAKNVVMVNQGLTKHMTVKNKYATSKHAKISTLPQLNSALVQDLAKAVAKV

| SMILES | IC50 (MMK1 protein kinase) [µM] | GI50 [1] [µM] | GI50 (B16) [µM] | IC50 (cdk1/cyclin B (CDC2)) [µM] | IC50 (IκB-α kinase) [µM] | IC50 ([2]; read-out: 10^−5 M BAP IC50, 10^−5 M 6-benzylaminopurine, four weeks) [µM] | IC50 ([2]; read-out: 10^−6 M BAP IC50, 10^−6 M 6-benzylaminopurine, four weeks) [µM] |
| --- | --- | --- | --- | --- | --- | --- | --- |
| CC(=O)Oc1ccccc1CNc1nc(NCCO)nc2c(C)n[nH]c12 | 3.3 | 14.5 | 16.2 | – | – | – | – |
| CC(=O)c1ccccc1CNc1nc(NCCO)nc2c(C)n[nH]c12 | 0.4 | 10.8 | 9.3 | – | – | – | – |
| Cc1n[nH]c2c(NCc3c(N)cccc3Cl)nc(NCCO)nc12 | 0.86 | 5.8 | 7.2 | – | – | – | – |
| Cc1n[nH]c2c(NCc3cccc(Cl)c3O)nc(NCCO)nc12 | 0.38 | 1.5 | 2.1 | – | – | – | – |
| COc1cccc(CNc2nc(NCCO)nc3c(C)n[nH]c23)c1O | 0.45 | 3.5 | 4.2 | – | – | – | – |
| Cc1cccc(CNc2nc(NCCO)nc3c(C)n[nH]c23)c1O | 0.34 | 2.8 | 3.1 | – | – | – | – |
| Cc1n[nH]c2c(NCc3ccccc3O)nc(NCCO)nc12 | 0.41 | 5.6 | 8.2 | – | – | – | – |
| COc1ccc(CNc2nc(NCCO)nc3c(C)n[nH]c23)c(O)c1O | 0.29 | 3.5 | 4.2 | – | – | – | – |
| Cc1n[nH]c2c(NCc3cc(O)c(Cl)cc3O)nc(NCCO)nc12 | 0.38 | 1.5 | 2.8 | – | – | – | – |
| COc1cc(O)c(CNc2nc(NCCO)nc3c(C)n[nH]c23)cc1O | 0.16 | 4.2 | 3.7 | – | – | – | – |
| COc1cc(O)c(CNc2nc(NCCO)nc3c(C)n[nH]c23)c(O)c1 | 0.09 | 2.8 | 4.7 | – | – | – | – |
| CC(=O)Oc1cccc(CNc2nc(NCCO)nc3c(C)n[nH]c23)c1 | 3.4 | 15.4 | 16.7 | – | – | – | – |
| CC(=O)c1cccc(CNc2nc(NCCO)nc3c(C)n[nH]c23)c1 | 0.9 | 13.5 | 14.2 | – | – | – | – |
| Cc1n[nH]c2c(Nc3ccc(Cl)c(N)c3)nc(NCCO)nc12 | 0.24 | 5.7 | 6.4 | – | – | – | – |
| Cc1n[nH]c2c(Nc3ccc(Cl)c(C(=O)O)c3)nc(NCCO)nc12 | 0.3 | 6.5 | 7.2 | – | – | – | – |
| Cc1n[nH]c2c(Nc3ccc(O)c(C(=O)O)c3)nc(NCCO)nc12 | 0.7 | 12.4 | 15.8 | – | – | – | – |
| Cc1n[nH]c2c(Nc3ccc(N)c(Cl)c3)nc(NCCO)nc12 | 0.25 | 16.2 | 17.5 | – | – | – | – |
| Cc1n[nH]c2c(Nc3ccc(C(=O)O)c(Cl)c3)nc(NCCO)nc12 | 0.16 | 8.9 | 9.2 | – | – | – | – |
| Cc1n[nH]c2c(Nc3cc(N)cc(Cl)c3)nc(NCCO)nc12 | 0.3 | 13.4 | 14.5 | – | – | – | – |
| Cc1n[nH]c2c(Nc3cccc(Cl)c3)nc(NCCO)nc12 | 0.9 | 8.9 | 9.8 | – | – | – | – |
| Cc1n[nH]c2c(NCc3cccc(O)c3)nc(NCCO)nc12 | 0.84 | 9.4 | 10.2 | – | – | – | – |

| SMILES | IC50 (MMK1 protein kinase) [µM] | GI50 [1] [µM] | GI50 (B16) [µM] | IC50 (cdk1/cyclin B (CDC2)) [µM] | IC50 (IκB-α kinase) [µM] | IC50 ([2]; read-out: 10^−5 M BAP IC50, 10^−5 M 6-benzylaminopurine, four weeks) [µM] | IC50 ([2]; read-out: 10^−6 M BAP IC50, 10^−6 M 6-benzylaminopurine, four weeks) [µM] |
| --- | --- | --- | --- | --- | --- | --- | --- |
| Cc1n[nH]c2c(NCc3ccc(O)c(O)c3)nc(NCCO)nc12 | 24 | 15.5 | 18.7 | – | – | – | – |
| Cc1n[nH]c2c(Nc3ccc(Br)cc3)nc(NCCO)nc12 | 0.15 | 8.5 | 8.6 | – | – | – | – |
| Cc1n[nH]c2c(Nc3ccc(Cl)cc3)nc(NCCO)nc12 | 0.18 | 7.6 | 8.4 | – | – | – | – |
| CC(=O)Oc1ccccc1CNc1nc(N[C@@H](CO)C(C)C)nc2c(C(C)C)n[nH]c12 | 0.012 | 8.7 | 10.9 | – | – | – | – |
| CC(=O)c1ccccc1CNc1nc(N[C@@H](CO)C(C)C)nc2c(C(C)C)n[nH]c12 | 0.05 | 14.5 | 18.2 | – | – | – | – |
| COc1cccc(CNc2nc(N[C@@H](CO)C(C)C)nc3c(C(C)C)n[nH]c23)c1O | 0.015 | 9.7 | 9.1 | – | – | – | – |
| CC(C)c1n[nH]c2c(NCc3ccc(Cl)c(N)c3N)nc(N[C@@H](CO)C(C)C)nc12 | 0.04 | 8.2 | 12.4 | – | – | – | – |
| CC(=O)c1cccc(CNc2nc(N[C@@H](CO)C(C)C)nc3c(C(C)C)n[nH]c23)c1 | 0.005 | 8.6 | 9.4 | – | – | – | – |
| CC(C)c1n[nH]c2c(Nc3cc(N)cc(Cl)c3)nc(N[C@@H](CO)C(C)C)nc12 | 0.015 | 9.5 | 14.5 | – | – | – | – |
| CC(C)c1n[nH]c2c(NCc3ccc(O)c(O)c3)nc(N[C@@H](CO)C(C)C)nc12 | 0.31 | 4.2 | 5.8 | – | – | – | – |
| CC(C)c1n[nH]c2c(N(C)CCc3ccc(O)c(O)c3)nc(N[C@@H](CO)C(C)C)nc12 | 0.15 | 8.4 | 9.7 | – | – | – | – |
| CC(C)c1n[nH]c2c(N(C)Cc3ccc(O)c(O)c3)nc(N[C@@H](CO)C(C)C)nc12 | 0.11 | 3.5 | 4.8 | – | – | – | – |
| CC(C)c1n[nH]c2c(NC(CO)c3ccccc3)nc(NC(CO)C(C)C)nc12 (stereo not shown) | 0.15 | 2.6 | 4.8 | – | – | – | – |
| CC[C@H](CO)Nc1nc(NCc2c(N)cccc2Cl)c2[nH]nc(C(C)C)c2n1 | 0.0035 | 4.6 | 8.3 | – | – | – | – |
| CC[C@H](CO)Nc1nc(NCc2ccc(Cl)c(N)c2N)c2[nH]nc(C(C)C)c2n1 | 0.4 | 4.6 | 9.9 | – | – | – | – |
| CC[C@H](CO)Nc1nc(NCc2ccc(Cl)c(N)c2)c2[nH]nc(C(C)C)c2n1 | 0.024 | 11.4 | 18.7 | – | – | – | – |
| CC[C@H](CO)Nc1nc(N(C)CCc2ccc(O)c(O)c2)c2[nH]nc(C(C)C)c2n1 | 1.5 | 13.1 | 18.6 | – | – | – | – |
| CC[C@H](CO)Nc1nc(N(C)Cc2ccc(O)c(O)c2)c2[nH]nc(C(C)C)c2n1 | 0.51 | 11.6 | 19.4 | – | – | – | – |
| CCC(CO)Nc1nc(NC(CO)c2ccccc2)c2[nH]nc(C(C)C)c2n1 (stereo not shown) | 0.21 | 7.9 | 13.7 | – | – | – | – |
| Cc1n[nH]c2c(NCc3ccccc3)nc(NCCCN)nc12 [3-aminopropylamino; benzylamino; methyl] | – | – | – | 0.2 | 0.4 | > 50 | 45 |
